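How tested: cells in 96-well plates exposed to compound for 48 hours at five concentrations. The concentration for full growth arrest is given as TGI.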
Experiments:
Test in all cases: NCI anticancer screen, dose series, 48 h
HCT-15 colon = test system: HCT-15 colon
HT29 colon = test system: HT29 colon
IGROV1 ovarian = test system: IGROV1 ovarian
NCI-H460 lung = test system: NCI-H460 lung
OVCAR-5 ovarian = test system: OVCAR-5 ovarian
PC-3 prostate = test system: PC-3 prostate
RPMI-8226 leukemia = test system: RPMI-8226 leukemia
SNB-75 CNS = test system: SNB-75 CNS
U251 CNS = test system: U251 CNS
UACC-62 melanoma = test system: UACC-62 melanoma

| Compound | TGI (HCT-15 colon) [µM] | TGI (HT29 colon) [µM] | TGI (IGROV1 ovarian) [µM] | TGI (NCI-H460 lung) [µM] | TGI (OVCAR-5 ovarian) [µM] | TGI (PC-3 prostate) [µM] | TGI (RPMI-8226 leukemia) [µM] | TGI (SNB-75 CNS) [µM] | TGI (U251 CNS) [µM] | TGI (UACC-62 melanoma) [µM] |
| --- | --- | --- | --- | --- | --- | --- | --- | --- | --- | --- |
| C(/C=C/Nc1ccc(Oc2ccccc2)cc1)=Nc1ccc(Oc2ccccc2)cc1 | 33.6 | 29.7 | 33 | 30.6 | 50.2 | 28.4 | 54.1 | 31.9 | 33.2 | – |
| C1=Cc2cc3c(c4nccc(c24)N1)OCO3 | > 76.7 | – | 8.24 | > 30.6 | > 69.4 | > 100 | > 65.9 | 28.7 | > 100 | 32.2 |
| CC(=O)Oc1ccc2cc(-c3ccccc3OC(C)=O)c(=O)oc2c1 | > 100 | > 100 | – | > 100 | > 100 | > 100 | > 100 | 34.4 | > 100 | – |
| O=C1c2ccsc2C(=O)c2sc(CO)cc21 | 0.102 | 0.444 | 1.36 | 2.17 | 2.12 | 1.78 | – | 0.104 | 0.421 | 0.122 |
| CCOC(=O)Cc1nc2cc(F)c(F)cc2[nH]c1=O | > 100 | > 100 | – | > 100 | > 100 | > 100 | > 100 | > 100 | > 100 | > 100 |
| CC(=O)O[C@H]1C(=O)[C@@]2(C)[C@H]([C@H](OC(=O)c3ccoc3)[C@]3(O)C[C@H](OC(=O)[C@H](O)[C@@H](NC(=O)c4ccccc4)c4ccccc4)C(C)=C1C3(C)C)[C@]1(OC(C)=O)CO[C@@H]1C[C@@H]2O | > 12.5 | > 12.5 | > 12.5 | > 3.73 | > 12.5 | > 12.5 | – | 2.38 | > 12.5 | > 12.5 |
| CC(=O)ONC(C(=O)C(C)(C)C)C(=O)C(C)(C)C | > 100 | > 100 | > 100 | > 100 | > 100 | > 100 | > 100 | > 100 | > 100 | – |
| CC(C)=C[C@H]1CCC2(OCCO2)[C@]1(C)COCc1ccccc1 | > 100 | – | – | 59 | 82.1 | > 100 | 41.9 | > 100 | – | – |
| COC1=C(OC)C(=O)C(Cc2c(C)nc3sccn23)=C(C)C1=O | 41 | 32.2 | 40.9 | 61.5 | 34.6 | 51.6 | 24.7 | – | 33.1 | 23.5 |

— PubChem BioAssay (NCI)
